The text below walks through data of ChEMBL document CHEMBL1129725, “Synthesis and antitumor activity of 7-substituted 20(RS)-camptothecin analogues” (Bioorg Med Chem Lett, 1996).

What all share (type): functional, cell-based
One assay deals with A 172. In words: Cytotoxicity against A-172 human tumor cell lines.
The next assay deals with L1210. In words: Cytotoxicity against L1210 tumor cell lines in mice. The following applies: Mus musculus.
In assay [1] the test system is KATO III stomach cancer cell line. Nature of the assay: Cytotoxicity against KATO-III human tumor cell lines.
Another assay has as its system Caov-3 cell line. In words: Cytotoxicity against CAOV-3 human tumor cell lines.
A further assay relates to DLD-1. Nature of the assay: Cytotoxicity against DLD-1 human tumor cell lines.

For `CCC1(O)C(=O)OCc2c1cc1n(c2=O)Cc2c-1nc1ccccc1c2CCN(CCO)C(=O)OCc1ccccc1` (stereo not given), the 50% inhibitory concentration (IC50) with A 172 stood at 1920 nM; with L1210, 2900 nM; in assay [1], 13800 nM; with Caov-3 cell line, 1140 nM; with DLD-1 it was 9720 nM.

Turning to `CCC1(O)C(=O)OCc2c1cc1n(c2=O)Cc2c-1nc1ccccc1c2CCN(CCOC(C)=O)C(=O)OCc1ccccc1` (stereo not given), the IC50 was determined as 18600 nM in the assay on A 172; 9080 nM with L1210; 16600 nM in assay [1]; 4480 nM in the assay on Caov-3 cell line; 15800 nM in the assay with DLD-1.

Turning to `CCC1(O)C(=O)OCc2c1cc1n(c2=O)Cc2c-1nc1ccccc1c2CCN1CCCCC1` (stereo not given), the IC50 was 51100 nM in the assay with A 172; over 100000 nM with L1210; over 100000 nM in assay [1]; over 100000 nM in the assay on Caov-3 cell line; over 100000 nM in the assay with DLD-1.

As for `CCCN(CCc1c2c(nc3ccccc13)-c1cc3c(c(=O)n1C2)COC(=O)C3(O)CC)C(=O)OCc1ccccc1` (stereo not given), the half-inhibitory concentration (IC50) was determined as 2330 nM in the assay on A 172; 1090 nM with L1210; 510 nM in assay [1]; 140 nM with Caov-3 cell line; 550 nM with DLD-1.

As for `CCNCCc1c2c(nc3ccccc13)-c1cc3c(c(=O)n1C2)COC(=O)C3(O)CC` (stereo not given), the IC50 with A 172 amounted to 85 nM; in the assay with L1210, 640 nM; in assay [1] it was 360 nM; in the assay on Caov-3 cell line, 200 nM; in the assay with DLD-1, 440 nM.

As for `CCC1(O)C(=O)OCc2c1cc1n(c2=O)Cc2c-1nc1ccccc1c2CCN1CCOCC1` (stereo not given), the 50% inhibitory concentration (IC50) is 81800 nM with A 172; over 100000 nM in the assay with L1210; 82000 nM in assay [1]; 42200 nM with Caov-3 cell line; over 100000 nM in the assay with DLD-1.

Consider `CCC1(O)C(=O)OCc2c1cc1n(c2=O)Cc2c-1nc1ccccc1c2CCNCc1ccccc1` (stereo not given), for which the 50% inhibitory concentration (IC50) with A 172 turned out to be 280 nM; in the assay on L1210 it was 4030 nM; in assay [1], 850 nM; in the assay on Caov-3 cell line, 170 nM; in the assay with DLD-1, 310 nM.

Take `CCC1(O)C(=O)OCc2c1cc1n(c2=O)Cc2c-1nc1ccccc1c2CCNCCO` (stereo not given): the half-inhibitory concentration (IC50) in the assay with A 172 was 23300 nM; in the assay with L1210, 13000 nM; in assay [1] it was 47800 nM; in the assay with Caov-3 cell line, 4630 nM; in the assay with DLD-1, 8790 nM.

As to `CCC1(O)C(=O)OCc2c1cc1n(c2=O)Cc2c-1nc1ccccc1c2CCN(C(=O)OCc1ccccc1)C(C)C` (stereo not given), the IC50 in the assay on A 172 came to 950 nM; with L1210, 1290 nM; in assay [1] it was 1850 nM; in the assay with Caov-3 cell line it was 41 nM; in the assay on DLD-1 it was 1830 nM.

For `CCC1(O)C(=O)OCc2c1cc1n(c2=O)Cc2c-1nc1ccccc1c2CCNCCOC(C)=O` (stereo not given), the IC50 in the assay with A 172 stood at 740 nM; in the assay on L1210 it was 4360 nM; in assay [1], 820 nM; in the assay on Caov-3 cell line, 880 nM; in the assay with DLD-1 it was 3480 nM.

As to `CCN(CCc1c2c(nc3cc4c(cc13)OCO4)-c1cc3c(c(=O)n1C2)COC(=O)C3(O)CC)C(=O)OCc1ccccc1` (stereo not given), the IC50 in the assay with A 172 is 2830 nM; in the assay on L1210, 3520 nM; in assay [1] it was 23100 nM; in the assay on Caov-3 cell line, 1740 nM; with DLD-1, 24200 nM.

Consider `CCC1(O)C(=O)OCc2c1cc1n(c2=O)Cc2c-1nc1ccccc1c2CCN1CCCC1` (stereo not given), for which the IC50 (in the assay on A 172; in the assay with L1210; in assay [1]; in the assay on Caov-3 cell line; with DLD-1) was over 100000 nM throughout.

With `CCC1(O)C(=O)OCc2c1cc1n(c2=O)Cc2c-1nc1ccccc1c2CCN(Cc1ccccc1)C(=O)OCc1ccccc1` (stereo not given), the IC50 in the assay on A 172 stood at 1180 nM; with L1210, 700 nM; in assay [1] it was 14000 nM; with Caov-3 cell line, 1970 nM; in the assay with DLD-1 it was 1060 nM.

As for `CCC1(O)C(=O)OCc2c1cc1n(c2=O)Cc2c-1nc1ccccc1c2CCNC(C)C` (stereo not given), the IC50 was found to be 110 nM in the assay on A 172; 130 nM in the assay on L1210; 40 nM in assay [1]; 41 nM with Caov-3 cell line; 110 nM with DLD-1.

In the case of `CC[C@@]1(O)C(=O)OCc2c1cc1n(c2=O)Cc2cc3ccccc3nc2-1` [CAMPTOTHECIN], the IC50 in the assay on A 172 is 140 nM; with L1210 it was 180 nM; in assay [1], 1170 nM; in the assay on Caov-3 cell line, 30 nM; with DLD-1, 210 nM.

One may read the IC50 as the concentration that inhibits the measured activity by half.
